Test results from patent US20200113882A1, “Use of 4-Aminopyridine to Improve Neuro-Cognitive and/or Neuro-Psychiatric Impairment in Patients with Demyelinating and Other Nervous System Conditions” (priority 2009, published 2020).

Experiments:
[1] = 14C-4-aminopyridine single oral dose 1 mg/kg in rats (HWI 6379-101): absorption, tissue distribution
Procedure: (§1) Studies were performed in rats and dogs using ^14C-labeled 4-aminopyridine (1 mg/kg) given as a single oral gavage dose in solution.
In a single-dose study, rats were administered ^14C-labeled 4-aminopyridine (1 mg/kg) p.o. Three animals per time point were sacrificed 1, 3, 8, and 24 hours post-dose. Blood was collected and tissues were excised for determination of radioactivity.

[2] = 14C-4-aminopyridine single oral dose 1 mg/kg in dogs (HWI 6379-102): absorption; format: in vivo, dog; settings: equal mg/kg doses, 1 mg/kg oral
Procedure: as §1

[3] = single- and repeated-dose toxicity studies in animals; format: in vivo
Procedure: In single- and repeated-dose toxicity studies, the dosing regimen greatly affected the rate of mortality and incidence of clinical signs in all species studied (with the possible exception of the mouse). In general, higher mortality rates and greater incidences of adverse clinical signs were noted when 4-aminopyridine was administered in a single large dose as compared to when the same total dose was given as two, three, or four equally divided sub-doses. Toxic responses to orally administered 4-aminopyridine were rapid in onset, most often occurring within the first 2 hours post-dose.
These clinical signs were not unexpected and represent exaggerated pharmacology of 4-aminopyridine.

[4] = system: normal adult myelinated axons; settings: cited from earlier work
[5] = adverse events in clinical studies; format: in vivo, human; settings: controlled clinical studies
Text: In controlled clinical studies involving the use of fampridine, the most frequent adverse events by body system occurred in the nervous system, “body as a whole”, and digestive system.
While an increased incidence of such events appears to be moderately dose-related, the susceptibility of individuals is quite variable. The potential for lowering seizure threshold in people with MS appears to be more significant than for people with spinal cord injury, which may result from interaction of the channel-blocking properties of the drug with MS brain pathology in certain individuals.

[6] = system: cognitive function in MS patients; settings: prior study; cited from earlier work
[7] = rat pharmacokinetics after i.v. and p.o. 2 mg/kg (M 2001-03); settings: rats, single p.o. 2 mg/kg
[8] = rats, 1 mg/kg p.o., one hour post-dose

## Nc1ccncc1 [14C-4-Aminopyridine]
[1]; both, rat, in vivo, po, 1 mg/kg
  time to peak plasma levels: 0.5 to 1 h
[1]; rats, 1 mg/kg p.o., 3 hours post-dose
  radioactive dose in carcass: 15.4%
[1]; [8]
  dose accounted for in total (radioactivity): 58.3%
  radioactivity in blood, percent of dose: 0.7%
  radioactivity in carcass: 51%
  radioactivity in kidney, percent of dose: 1.6%
  radioactivity in liver, percent of dose: 2.6%
[2]
  Cmax and AUC in the dog relative to the rat: approximately four-fold higher

## Nc1ccncc1 [4-aminopyridine]
[3]; after large single doses or repeated lower doses, all species studied
  clinical signs: tremors, convulsions, ataxia, dyspnea, dilated pupils, prostration, abnormal vocalization, increased respiration, excess salivation, gait abnormalities, and hyper- and hypo-excitability
[3]; orally administered, most often
  onset of toxic responses post-dose: ≤ 2 h
[4]; (94.1 μg/mL)
  concentrations that tend to cause gradual depolarization of the axon resting potential: above 1 mM
[4]; normal adult myelinated axons (9.4 μg/mL)
  concentrations at which action potential shows little or no sensitivity: below 100 μM
[5]
  most common nervous system adverse events: Dizziness, insomnia, paresthesia, pain, headache and asthenia
  most frequently reported digestive system adverse event: nausea
[6]
  benefit of cognitive function: did not show benefit
[7]
  Vdss difference between males and females adjusted for body weight: 2%
